Assay [1] relates to cancer cell lines with wild-type p53 / mutated or deleted p53 (ATCC). The assay is described as follows: Cell growth assay (WST-8), other cancer cell lines. Format: cell-based. The settings on record: Homo sapiens. A general note: Tetrazolium assays rely on reduction of a dye to a coloured formazan, in cell work by metabolically active cells.
The target of assay [2] is recombinant human His-tagged MDM2 protein (residues 1-118) (Homo sapiens (Human), UniProt Q00987). The assay is described as follows: Fluorescence-polarization MDM2 binding assay.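 Further: fluorescence polarization read after three hours of incubation in potassium phosphate buffer containing bovine gamma globulin and Triton X-100.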 To be noted: Table 19C; read-out: Bidning affinities to MDM2 as determined using FP assay IC50.
Protocol: The assay was performed in the buffer: 100 mM potassium phosphate, pH 7.5; 100 μg/mL bovine gamma globulin; 0.02% sodium azide, 0.01% Triton X-100) and the polarization values were measured after 3 h of incubation using an ULTRA READER (Tecan U.S. Inc., Research Triangle Park, N.C.). […] The Kd value was calculated using the equation: Kd value=IC50−L0/2.
The polarization values were measured after 3 h of incubation. […] Curve fitting was performed using [sequence] PRISM software (GraphPad Software, Inc., San Diego, Calif.). […] Compounds shown in Tables 19A-D as the free base were tested either as the free base or as the CF3CO2H (TFA) or HCl salt.
Assay [3] concerns Isogenic HCT-116 colon cancer cell lines. The assay is described as follows: cells. In kind it is cell-based. The settings on record: Homo sapiens.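 Further: cells grown in 96-well plates in McCoy's 5A medium with 10% FBS, exposed to compound for 4 days.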
Protocol: Cells were seeded in 96-well flat bottom cell culture plates at a density of 2−3×10^3 cells/well with compounds and incubated for 4 days.
Where [4] appears, read: LNCaP, Table 19C, LNCaP cells, read-out: Cell growth inhibition using WST assay, LNCaP IC50.
The mark [5] stands for this setting: PC-3, Table 19C, PC3 cells, read-out: Cell growth inhibition using WST assay, PC3 IC50.
Where [6] appears, read: HCT-116, read-out: Cell growth inhibition using WST assay, HCT116 p53KO IC50, Table 19C, HCT116 p53KO.
Where [7] appears, read: HCT-116, read-out: Cell growth inhibition using WST assay, HCT116 p53WT IC50, Table 19C, HCT116 p53WT.

Each structure is given as a SMILES string. Read-outs that look alike come from different tables or passages of the source.

Here are results for 11 compounds from patent publication US9079913B2, “Spiro-oxindole MDM2 antagonists” (The Regents of the University of Michigan, priority 2009, dated 2015).

Chain of recombinant human His-tagged MDM2 protein (residues 1-118) (Q00987 1-118): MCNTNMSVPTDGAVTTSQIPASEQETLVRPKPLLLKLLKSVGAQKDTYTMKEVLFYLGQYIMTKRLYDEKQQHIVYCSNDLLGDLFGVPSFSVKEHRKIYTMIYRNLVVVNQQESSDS

A word on the IC50: it is the concentration at which inhibition is half-maximal. `CC(C)(C)C[C@H]1N[C@@H](C(=O)NC[C@H](O)[C@H](O)CO)[C@H](Cc2cccc(Cl)c2)[C@@]12C(=O)Nc1cc(Cl)c(F)cc12` [MI-319-24]: the IC50 in assay [1] (setting [4]) is under 5 µM; in assay [1] (setting [5]) it was over 10 µM; in assay [2], under 1 µM; in assay [3] (setting [6]), over 10 µM; in assay [3] (setting [7]) it was under 5 µM.

As for `CC(C)(C)C[C@H]1N[C@@H](C(=O)NCC[C@H](O)CN)[C@H](c2cccc(Cl)c2)[C@@]12C(=O)Nc1cc(Cl)c(F)cc12` [MI-319-25], the IC50 in assay [1] (setting [4]) is under 5 µM; in assay [1] (setting [5]), over 10 µM; in assay [2], under 1 µM; in assay [3] (setting [6]) it was over 10 µM; in assay [3] (setting [7]) it was under 5 µM.

Turning to `CC(C)(C)C[C@H]1N[C@@H](C(=O)NCC[C@H](O)COC(=O)CC(=O)O)[C@H](c2ccc(F)c(Cl)c2)[C@@]12C(=O)Nc1cc(Cl)c(F)cc12` [MI-319-26], the IC50 in assay [1] (setting [4]) is under 5 µM; in assay [1] (setting [5]), over 10 µM; in assay [2], under 1 µM; in assay [3] (setting [6]) it was over 10 µM; in assay [3] (setting [7]), under 5 µM.

`CCOP(=O)(OCC)OC[C@@H](O)CCNC(=O)[C@@H]1N[C@H](CC(C)(C)C)[C@]2(C(=O)Nc3cc(Cl)c(F)cc32)[C@H]1c1ccc(F)c(Cl)c1` [MI-319-27]: the IC50 in assay [1] (LNCaP, read-out: Cell growth inhibition using WST assay, LNCaP IC50) is under 5 µM; in assay [1] (PC-3, read-out: Cell growth inhibition using WST assay, PC3 IC50), over 10 µM; in assay [2] it was under 5 µM; in assay [3] (setting [6]) it was over 10 µM; in assay [3] (setting [7]), under 5 µM.

Regarding `CN(C)C[C@@H](O)CCNC(=O)[C@@H]1N[C@H](CC(C)(C)C)[C@]2(C(=O)Nc3cc(Cl)c(F)cc32)[C@H]1c1ccc(F)c(Cl)c1` [MI-319-28], the IC50 is under 5 µM in assay [1] (setting [4]); over 5 µM in assay [1] (setting [5]); under 5 µM in assay [2]; over 5 µM in assay [3] (setting [6]); under 5 µM in assay [3] (setting [7]).

As to `CN(CC[C@H](O)CO)C(=O)[C@@H]1N[C@H](CC(C)(C)C)[C@]2(C(=O)Nc3cc(Cl)c(F)cc32)[C@H]1c1cccc(Cl)c1` [MI-319-29], the half-maximal inhibitory concentration (IC50) in assay [1] (setting [4]) is over 10 µM; in assay [1] (setting [5]) it was over 10 µM; in assay [2], over 5 µM; in assay [3] (setting [6]) it was over 10 µM; in assay [3] (setting [7]), over 10 µM.

`CNC[C@@H](O)CCNC(=O)[C@@H]1N[C@H](CC(C)(C)C)[C@]2(C(=O)Nc3cc(Cl)c(F)cc32)[C@H]1c1ccc(F)c(Cl)c1` [MI-319-30]: the IC50 in assay [1] (setting [4]) is over 5 µM; in assay [1] (setting [5]) it was over 10 µM; in assay [2] it was under 5 µM; in assay [3] (setting [6]) it was over 10 µM; in assay [3] (setting [7]), over 10 µM.

`CC(C)(C)C[C@H]1N[C@@H](C(=O)NCCN2CCN(C(=O)CO)CC2)[C@H](c2cccc(Cl)c2)[C@@]12C(=O)Nc1cc(Cl)c(F)cc12` [MI-319-33]: the IC50 in assay [1] (setting [4]) was 1.4 ± 0.2 µM; in assay [1] (setting [5]), 23.6 ± 5.5 µM; in assay [2], under 1 µM; in assay [3] (setting [6]), 25.3 ± 2.8 µM; in assay [3] (setting [7]) it was 2.1 ± 0.2 µM.

As to `CC(C)(C)C[C@H]1N[C@@H](C(=O)NCC[C@H](O)CO)[C@H](c2cncc(Cl)c2)[C@@]12C(=O)Nc1cc(Cl)c(F)cc12` [MI-319-34], the IC50 in assay [1] (setting [4]) was under 10 µM; in assay [1] (setting [5]) it was over 30 µM; in assay [2] it was under 10 µM; in assay [3] (setting [6]) it was over 30 µM; in assay [3] (setting [7]), 9.5 ± 2.1 µM.

As to `CC(C)(C)C[C@H]1N[C@@H](C(=O)NCC[C@H](O)CO)[C@H](c2cc(Cl)ccn2)[C@@]12C(=O)Nc1cc(Cl)c(F)cc12` [MI-319-35], the IC50 in assay [1] (setting [4]) is 3.2 ± 0.3 µM; in assay [1] (setting [5]) it was over 10 µM; in assay [2] it was under 10 µM; in assay [3] (setting [6]) it was over 10 µM; in assay [3] (setting [7]), 4.8 ± 0.5 µM.

As to `CC(C)(CCO)C[C@H]1N[C@@H](C(=O)NCC[C@H](O)CO)[C@H](c2cccc(Cl)c2)[C@@]12C(=O)Nc1cc(Cl)c(F)cc12` [MI-319-36], the IC50 is 6.4 ± 1.4 µM in assay [1] (setting [4]); over 30 µM in assay [1] (setting [5]); under 5 µM in assay [2]; over 30 µM in assay [3] (setting [6]); 12.2 ± 1.7 µM in assay [3] (setting [7]).
